Experimental data taken from patent US20240415791A1, “Therapeutic methods and compositions for treating cancer using devimistat and a fatty acid oxidation inhibitor, a tyrosine kinase inhibitor, a glutaminase inhibitor, and/or a glycolysis inhibitor” (Cornerstone Pharmaceuticals, Inc., priority 2021, published 2024).
“Also recorded” adds a separate entry of the source.

Tests used:
[1] = tested on: AsPC1 cells; assay: Devimistat-induced cell death (ATP after recovery) in AsPC1 cells; type: cell-based, human; conditions: AsPC1, nutrient-free CBS2, treatment followed by recovery in serum-free RPMI
Description: Cells were plated at 80% confluency in complete RPMI in black, clear bottom 96-well plates or 35-mm dishes for ATP, protein and glycogen analysis, or glass coverslips for fluorescence visualization. […] Prior to drug treatment, cells were incubated in a nutrient-free carbonate buffered salt solution (CBS2) for 3 hours. Drug treatments were then carried out in CBS2 with addition of nutrient sources and/or chemical agents as described in the Examples and Figures.
(§1) LOGIC: High throughput, plate reader assays for cell death essentially always ultimately depend on metabolic activity of cells to identify viability, directly or indirectly. Thus, strong inhibition of metabolic activity by anti-metabolism agents like those described herein can confound cell death analysis by such assays. […] The inventors thus used a recovery-based assay wherein cells are treated with anti-metabolic agents under conditions where mitochondrial metabolism is (or becomes) limiting on viability. After experimental treatment, drug and media are removed and cells are allowed to recover in serum-free RPMI. RPMI provides high levels of glucose in support of glycolytic ATP generation (independently of mitochondrial function), allowing viable cells to recover ATP levels that are ultimately measured in the plate assay to score cell viability.
Survival is assessed by conventional luminescence measurement of ATP levels after this recovery.
TECHNICAL DETAILS: Immediately after drug treatments, acute ATP levels of cells in black, clear bottom 96-well plates were measured using the CellTiter-Glo® Luminescent Cell Viability Assay (catalog #G775B) following Promega (Madison, WI) protocols. […] After this recovery period ATP levels were measured using the CellTiter-Glo® Luminescent Cell Viability Assay as described above.
Survival is assessed by conventional luminescence measurement of ATP levels after this recovery. See the Methods section above for a detailed description of this assay and its validation.

[2] = tested on: PANC1 cells; assay: Devimistat-induced cell death (ATP after recovery) in PANC1 cells; type: cell-based, human; conditions: PANC1, nutrient-free CBS2, treatment followed by recovery in serum-free RPMI
Description: Cells were plated at 80% confluency in complete RPMI in black, clear bottom 96-well plates or 35-mm dishes for ATP, protein and glycogen analysis, or glass coverslips for fluorescence visualization. To create low nutritional conditions, cells were seeded in complete media, after 24 hours cells were transferred to serum free RPMI for 18-24 hours. Prior to drug treatment, cells were incubated in a nutrient-free carbonate buffered salt solution (CBS2) for 3 hours. Drug treatments were then carried out in CBS2 with addition of nutrient sources and/or chemical agents as described in the Examples and Figures.
as §1, with “cell viability. Under these conditions, cells that are committed to execution of cell death by the experimental treatment score as dead and cells that have not committed to cell death recover ATP levels and score as viable.” for “cell viability.”
Specifically, after exposure to the treatments indicated, cells are allowed to recover ([…]) in RPMI without serum. Survival is assessed by conventional luminescence measurement of ATP levels after this recovery.
TECHNICAL DETAILS: Immediately after drug treatments, acute ATP levels of cells in black, clear bottom 96-well plates were measured using the CellTiter-Glo® Luminescent Cell Viability Assay (catalog #G775B) following Promega (Madison, WI) protocols. To assess cell viability, after drug treatments, drug/agent-containing medium was replaced with serum-free RPMI and cells were incubated for an additional 17-24 hours to allow recovery of viable cells, without additional cell division. After this recovery period ATP levels were measured using the CellTiter-Glo® Luminescent Cell Viability Assay as described above.
A. Exogenous glucose protects from devimistat-induced cell death. Four different cell lines were exposed for 15 hours (PANC1, AsPC1, H460) or 8 hours (PC3) to the indicated range of devimistat doses in the absence of exogenous nutrients (in carbonate buffered balanced salts solution, CBS2) after 3 hours of preincubation in CBS2 (for cell adaptation and to equilibrate soluble nutrient pools). Cells were exposed to the treatments indicated, followed by recovery (24 hours) in RPMI without serum (providing nutrient support for viable cell recovery, without serum factors for cell division). Survival is assessed by conventional luminescence measurement of ATP levels after this recovery. […] The relatively large quantitative differences in devimistat sensitivity between cell lines under exogenous nutrient deprivation are characteristic of each line (see examples below), with small experiment-to-experiment variation. […]

[3] = tested on: AsPC1 cells; assay: Acute ATP synthesis rescue by exogenous carbon sources in AsPC1 cells treated with devimistat and GPi; type: cell-based, human; conditions: 60 μM devimistat
[4] = tested on: AsPC1 cells; assay: Glycogen content in AsPC1 cells; type: cell-based, human; conditions: AsPC1, CBS2, 3 hours
Description: (§2) Glycogen was quantified using the Glycogen Assay Kit II (colorimetric) from AbCam (ab169558) according to manufacturer's instructions. Briefly, approximately 2×10^6 cells were washed with ice-cold PBS and collected via scraping in 300 μL ice-cold ddH2O. Cells were immediately sonicated on ice for 5× […] pulses with a probe sonicator (Misonix Inc, model XL2000), then heated to 80° C. for 10 min. Samples were stored O/N at −20° C., then thawed, centrifuged at 12,000×g for 10 min and the supernatants collected for glycogen hydrolysis and quantification according to manufacturer's instructions.
C. […] Cells were treated in CBS2 for 3 hours with 30 μM devimistat or mock treated (FIG. 2C, left), or treated for 3 hours with the indicated devimistat doses (FIG. 2C, right).
(§3) D. Effects of anti-metabolism agents on glycogen consumption in PANC1 and AsPC1 cells. […] Glycogen content was measured in cell lysates (see Methods, above) and the results are presented in the left and middle graphs in FIG. 3D (note the different vertical scales for PANC1 and AsPC1 plots).

[5] = tested on: PANC1 cells; assay: Glycogen content in PANC1 cells; type: cell-based, human; conditions: PANC1, CBS2, 3 hours
Description: as §2
C. Comparison of endogenous glycogen stores and their devimistat-induced depletion in PANC1 and AsPC1 cells. Cells were treated in CBS2 for 3 hours with 30 μM devimistat or mock treated (FIG. 2C, left), or treated for 3 hours with the indicated devimistat doses (FIG. 2C, right). Glycogen quantitation is described in Methods, above. ** indicates p<0.01. **** indicates p<0.0001.
as §3

[6] = tested on: AsPC1 xenograft; assay: AsPC1 xenograft tumor growth, crizotinib and devimistat; type: in vivo, mice; conditions: crizotinib oral gavage, devimistat IP, MWF
Description: Female, 6-week-old, CD1-nu/nu mice were inoculated with 2.5 million PANC-1 cell in 100 μL of HBSS or 5 million AsPC-1 cells in HBSS. Treatment commenced when tumors reached 100 mm^3 and lasted for the times indicated in the Examples and Figures. Mice were treated three times per week (MWF) with vehicle or drugs as indicated in the Examples and Figures. Tumors were measured once per week. […] Use of Matrigel for tumor inoculation was avoided in TGI experiments with this class of agents.
D. Assessment of CRZ and/or devimistat effects on AsPC1 xenograft tumor growth in vivo. Tumors were inoculated subcutaneously on the flank and drug combinations indicated in FIG. 8C were administered intraperitoneally (devimistat) or by oral gavage (CRZ) three days per week (MWF). Tumor size was estimated by caliper assessment of tumor radius and calculation of volume (see Methods).

[7] = tested on: AsPC1 cells; assay: CO2 release from 14C-oleic acid in AsPC1 cells; type: cell-based, human; conditions: AsPC1, CBS2, 50 μM GPi, 40 μM oleic acid
[8] = tested on: H460, PC3 and SW620 cells; assay: Devimistat cell killing with thioridazine in other cell lines; type: cell-based, human; conditions: 10 μM devimistat, 21 hours treatment, 22 hours recovery
[9] = AsPC1, 50 μM GPi, 50 μM oleic acid

| SMILES | sensitization to devimistat-induced cell death, agent combined with devimistat [1] | sensitization to devimistat-induced cell death, agent combined with devimistat [2] | blockade of glutamine rescue from devimistat inhibition of ATP synthesis ([3]; AsPC1, 50 μM GPi, 2 mM glutamine, CB-839 0.2 μM, hexachlorophene 3 μM, 4.5 hours) | glycogen consumption [4] | glycogen consumption [5] | sensitization to devimistat tumor cell killing in vivo [6] | inhibition of oleic acid (OA)-driven acute ATP synthesis / OA rescue [3, 9] | OA rescue blockade ([3]; acute ATP synthesis, 50 μM GPi, 50 μM oleic acid) | oleic acid beta-oxidation (CO2 release from oleate) [7] | enhancement of devimistat cell killing [8] |
| --- | --- | --- | --- | --- | --- | --- | --- | --- | --- | --- |
| O=C(Cc1cccc(OC(F)(F)F)c1)Nc1ccc(CCCCc2nnc(NC(=O)Cc3ccccn3)s2)nn1 [CB-839, 2-(pyridin-2-yl)-N-(5-(4-(6-(2-(3-(trifluoromethoxy)phenyl)acetamido)pyridazin-3-yl)butyl)-1,3,4-thiadiazol-2-yl)acetamide] | modest effects on devimistat sensitivity | modest effects on devimistat sensitivity | blockade |  |  |  |  |  |  |  |
| CN(C)C(=O)[C@H](O)[C@H](Cc1ccccc1)NC(=O)c1cc2cc(Cl)ccc2[nH]1 [CP-91149, 5-chloro-N-[(1S,2R)-3-(dimethylamino)-2-hydroxy-3-oxo-1-(phenylmethyl)propyl]-1H-indole-2-carboxamide] | Synergy observed | interacts more weakly with devimistat |  | reduces glycogen consumption | reduces glycogen consumption |  |  |  |  |  |
| C[C@@H](Oc1cc(-c2cnn(C3CCNCC3)c2)cnc1N)c1c(Cl)ccc(F)c1Cl [Crizotinib, (R)-3-[1-(2,6-Dichloro-3-fluorophenyl)ethoxy]-5-[1-(piperidin-4-yl)-1H-pyrazol-4-yl]pyridin-2-amine] | robustly sensitize |  |  |  |  | sensitizes to devimistat tumor cell killing in vitro and in vivo | robust inhibition | Yes |  |  |
| CCOC(=O)[C@@]1(CCCCCCOc2ccc(Cl)cc2)CO1 [ETX] | enhances devimistat effects |  |  |  |  |  | strongly inhibited |  | block oleic acid beta-oxidation |  |
| CCN(CCO)CCCC(C)Nc1ccnc2cc(Cl)ccc12 (stereo not drawn) [HCQ] | Synergy observed | Synergy observed |  | significantly accelerates glycogen consumption | significantly accelerates glycogen consumption |  |  |  |  |  |
| CSc1ccc2c(c1)N(CCC1CCCCN1C)c1ccccc1S2 (stereo not drawn) [TZ, 2-methylmercapto-10-[2-(N-methyl-2-piperidyl)ethyl] phenothiazine] | Synergy observed; also recorded: enhances devimistat effects | Synergy observed |  | accelerates glycogen consumption |  |  | strongly inhibited |  | block oleic acid beta-oxidation | enhances devimistat cell killing |
